The target in one test is GST-p53 DNA binding domain (aa 92-aa 312) (Homo sapiens, UniProt P04637). Put plainly: Scintillation Proximity Assay (SPA), displacement of 3H STANDARD COMPOUND
GST-p53 DNA binding domain (aa 92-aa 312), sequence (P04637 92-312): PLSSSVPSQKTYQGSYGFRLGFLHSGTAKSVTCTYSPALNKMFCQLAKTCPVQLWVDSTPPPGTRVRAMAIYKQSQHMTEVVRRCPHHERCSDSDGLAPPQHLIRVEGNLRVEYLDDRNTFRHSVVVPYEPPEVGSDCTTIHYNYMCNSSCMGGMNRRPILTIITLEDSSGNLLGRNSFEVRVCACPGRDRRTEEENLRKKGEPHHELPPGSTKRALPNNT
The following applies: 1 h, 2 ug/mL of drug; exact values; number in brackets = number of determinations averaged; read-out: SPA ASSAY % Residual T @ 2 ug/mL of drug (Average of). The source says: Most of the oncogenic mutants of the tumor suppressor protein p53 lack sequence specific DNA binding activity at physiological temperature due to conformational changes in the DNA binding domain. Small molecules and peptide which bind to the p53 DNA binding domain stabilize the conformation and restore DNA binding activity to mutant p53 protein (Science 286, 2507-2510, 1999; PNAS, 99, 937-942, 2002). Using ^3H STANDARD COMPOUND (structure shown below; carbon atom with * is the atom labelled), [drawing 1366] a radio labeled small molecule which binds to p53, and the GST-p53 DNA binding domain (aa 92-aa 312), we have developed a quantitative screening assay. The assay is based on Scintillation Proximity Assay (SPA) technology, developed by Amersham Biosciences to measure molecular interactions. Briefly, the complex of GST-p53, ^3H STANDARD and Glutathione-SPA beads (Amersham Biosciences) are incubated with mixing for 1 hr at room temperature in the presence of the novel compounds to be screened. The signal is read on Microbeta. The compounds which have the ability to displace ^3H STANDARD COMPOUND are selected. Such molecules will stabilize the conformation and restore DNA binding activity to mutant p53 protein.
The above assay was used to determine the ability of the compounds of this invention to directly bind to p53 core and restore DNA binding activity to mutant p53 and the results for selected compounds have been given above in various tables.
A letter rating corresponding to % Residual total binding (T) @ 2 ug/mL of drug (i.e., compound of the present invention) from this assay have been assigned as follows: Compounds having % Residual T values of from 0% to less than 20% have been assigned the letter “A”. Compounds having % Residual T values of from 20% to less than 40% have been assigned the letter “B”. Compounds having % Residual T values of from 40% to less than 80% have been assigned the letter “C”. Compounds having % Residual T values of 80% or higher have been assigned the letter “D”. The exact % Residual T values @ 2 ug/mL for some illustrative compounds are shown below: […]
A general note: In a scintillation proximity assay essentially only radioactivity close to the scintillant gives light.
Turning to `CN(C)CCCNc1nc(CN(C)Cc2cccc3cc[nH]c23)nc2ccccc12` [38-33], the remaining activity at 2 µg/mL stood at 25.7%.

As for `Cc1c(CN(C)Cc2nc(NCCCN(C)C)c3ccccc3n2)sc2ccccc12` [38-56], the remaining activity at 2 µg/mL came to 23.6%.

In the case of `CC(C)C1CCC(N(C)Cc2nc(NCCCN(C)C)c3ccccc3n2)CC1` (stereo not shown) [38-81], the remaining activity at 2 µg/mL was found to be 13.5%.

For `CN(C)CCCNc1nc(CN(C)C2CCC3CCCCC3C2)nc2ccccc12` (stereo not shown) [38-83], the remaining activity at 2 µg/mL is 28.7%.

`CN(C)CCCNc1nc(CN(C)C2CCC(C(C)(C)C)CC2)nc2ccccc12` (stereo not shown) [38-84]: the remaining activity at 2 µg/mL came out at 7.8%.

In the case of `CN(C)CCCNc1nc(CN(C)C2CCC3(CC2)OCCO3)nc2ccccc12` [38-85], the remaining activity at 2 µg/mL worked out at 23%.

For the compound `CCC(C)(C)C1CCC(N(C)Cc2nc(NCCCN(C)C)c3ccccc3n2)CC1` (stereo not shown) [38-88], the remaining activity at 2 µg/mL was 6.3%.

With `CN(C)CCCNc1nc(CN(C)C2CCC(c3ccccc3)CC2)nc2ccccc12` (stereo not shown) [38-89], the remaining activity at 2 µg/mL was determined as 21%.

The test is the same for the next values; noted with them: 1 h, 2 ug/mL of drug; letter rating; number in brackets = number of determinations averaged; read-out: SPA ASSAY % Residual T @ 2 ug/mL of drug (Average of).
For `CC(C)CCN(C)Cc1nc(NCCCN(C)C)c2ccccc2n1` [38-1], the remaining activity at 2 µg/mL is 20 to 40%.

For the compound `CCC(C)CN(C)Cc1nc(NCCCN(C)C)c2ccccc2n1` (stereo not shown) [38-2], the remaining activity at 2 µg/mL lay within 40 to 80%.

Turning to `CN(C)CCCNc1nc(CN(C)Cc2ccco2)nc2ccccc12` [38-3], the remaining activity at 2 µg/mL lay within 40 to 80%.

Take `CN(C)CCCNc1nc(CN(C)Cc2ccoc2)nc2ccccc12` [38-4]: the remaining activity at 2 µg/mL lay within 40 to 80%.

On to `CN(C)CCCNc1nc(CN(C)Cc2cccs2)nc2ccccc12` [38-8], for which the remaining activity at 2 µg/mL is at least 80%.

On to `CN(C)CCCNc1nc(CN(C)Cc2nccs2)nc2ccccc12` [38-10], for which the remaining activity at 2 µg/mL fell in the range of 20 to 40%.

`CN(C)CCCNc1nc(CN(C)Cc2cccc(F)c2)nc2ccccc12` [38-16]: the remaining activity at 2 µg/mL is at least 80%.

Take `CN(C)CCCNc1nc(CN(C)Cc2ccccc2C#N)nc2ccccc12` [38-18]: the remaining activity at 2 µg/mL was in the range of 40 to 80%.

With `CN(C)CCCNc1nc(CN(C)Cc2cccc(C#N)c2)nc2ccccc12` [38-19], the remaining activity at 2 µg/mL fell in the range of 40 to 80%.

As for `CN(C)CCCNc1nc(CN(C)Cc2ccc(C#N)cc2)nc2ccccc12` [38-20], the remaining activity at 2 µg/mL lay within 40 to 80%.

On to `CN(C)CCCNc1nc(CN(C)C/C=C/c2ccccc2)nc2ccccc12` [38-21], for which the remaining activity at 2 µg/mL was at least 80%.

On to `Cc1cccc(C)c1CN(C)Cc1nc(NCCCN(C)C)c2ccccc2n1` [38-24], for which the remaining activity at 2 µg/mL is at least 80%.

Turning to `COc1ccc(CN(C)Cc2nc(NCCCN(C)C)c3ccccc3n2)cc1` [38-27], the remaining activity at 2 µg/mL was 40 to 80%.

With `CN(C)CCCNc1nc(CN(C)Cc2ccc(Cl)cc2)nc2ccccc12` [38-30], the remaining activity at 2 µg/mL was in the range of 40 to 80%.

On to `CN(C)CCCNc1nc(CN(C)Cc2c(F)cccc2F)nc2ccccc12` [38-31], for which the remaining activity at 2 µg/mL lay in the range of 40 to 80%.

On to `CCOC(=O)C1CC1CN(C)Cc1nc(NCCCN(C)C)c2ccccc2n1` (stereo not shown) [38-32], for which the remaining activity at 2 µg/mL was 40 to 80%.

With `CN(C)CCCNc1nc(CN(C)Cc2cccc3cc[nH]c23)nc2ccccc12` [38-33], the remaining activity at 2 µg/mL lay in the range of 20 to 40%.

Regarding `CN(C)CCCNc1nc(CN(C)Cc2cc3ccccc3o2)nc2ccccc12` [38-34], the remaining activity at 2 µg/mL lay in the range of 40 to 80%.

For `CC(CCN(C)Cc1nc(NCCCN(C)C)c2ccccc2n1)c1ccccc1` (stereo not shown) [38-35], the remaining activity at 2 µg/mL is at least 80%.

For `CN(C)CCCNc1nc(CN(C)Cc2ccccc2C(=O)O)nc2ccccc12` [38-36], the remaining activity at 2 µg/mL is at least 80%.

Take `CN(C)CCCNc1nc(CN(C)Cc2cccc3c2OCO3)nc2ccccc12` [38-37]: the remaining activity at 2 µg/mL was in the range of 40 to 80%.

With `CN(C)CCCNc1nc(CN(C)Cc2cccc3ccccc23)nc2ccccc12` [38-41], the remaining activity at 2 µg/mL lay in the range of 40 to 80%.

Turning to `CN(C)CCCNc1nc(CN(C)Cc2ccc3ccccc3c2)nc2ccccc12` [38-42], the remaining activity at 2 µg/mL lay within 40 to 80%.

Turning to `COC(=O)c1ccc(CN(C)Cc2nc(NCCCN(C)C)c3ccccc3n2)cc1` [38-46], the remaining activity at 2 µg/mL was 40 to 80%.

With `CN(C)CCCNc1nc(CN(C)Cc2cccc(C(F)(F)F)c2)nc2ccccc12` [38-48], the remaining activity at 2 µg/mL is 40 to 80%.

On to `CN(C)CCCNc1nc(CN(C)Cc2cccc(Cl)c2Cl)nc2ccccc12` [38-50], for which the remaining activity at 2 µg/mL was at least 80%.

For `CN(C)CCCNc1nc(CN(C)Cc2cc(Cl)ccc2Cl)nc2ccccc12` [38-52], the remaining activity at 2 µg/mL is 40 to 80%.

Consider `Cc1c(CN(C)Cc2nc(NCCCN(C)C)c3ccccc3n2)sc2ccccc12` [38-56], for which the remaining activity at 2 µg/mL is 20 to 40%.

As for `CN(C)CCCNc1nc(CN(C)Cc2ccccc2OCC(=O)O)nc2ccccc12` [38-57], the remaining activity at 2 µg/mL was at least 80%.

On to `CN(C)CCCNc1nc(CN(C)Cc2ccc(-c3ccccc3)cc2)nc2ccccc12` [38-59], for which the remaining activity at 2 µg/mL is at least 80%.

Take `CN(C)CCCNc1nc(CN(C)Cc2ccc(Oc3ccccc3)cc2)nc2ccccc12` [38-64]: the remaining activity at 2 µg/mL was in the range of 40 to 80%.

On to `CN(C)CCCNc1nc(CN(C)Cc2ccc(C#Cc3ccccc3)cc2)nc2ccccc12` [38-65], for which the remaining activity at 2 µg/mL was at least 80%.

With `CN(C)CCCNc1nc(CN(C)Cc2cccn2S(=O)(=O)c2ccccc2)nc2ccccc12` [38-66], the remaining activity at 2 µg/mL lay in the range of 40 to 80%.

Regarding `CN(C)CCCNc1nc(CN(C)Cc2ccccc2Sc2ccc(Cl)cc2)nc2ccccc12` [38-67], the remaining activity at 2 µg/mL fell in the range of 40 to 80%.

Turning to `CN(C)CCCNc1nc(CN(C)C2CCC2)nc2ccccc12` [38-68], the remaining activity at 2 µg/mL was at least 80%.

Take `CN(C)CCCNc1nc(CN(C)C2CCCCC2)nc2ccccc12` [38-72]: the remaining activity at 2 µg/mL is 40 to 80%.

Turning to `CN(C)CCCNc1nc(CN(C)C2CCSC2)nc2ccccc12` (stereo not shown) [38-74], the remaining activity at 2 µg/mL is 40 to 80%.

On to `CN(C)CCCNc1nc(CN(C)C2C[C@@H]3CC[C@H]2C3)nc2ccccc12` (stereo partly shown) [38-75], for which the remaining activity at 2 µg/mL is at least 80%.

For `CC1CCC(N(C)Cc2nc(NCCCN(C)C)c3ccccc3n2)CC1` (stereo not shown) [38-77], the remaining activity at 2 µg/mL fell in the range of 40 to 80%.

For the compound `CC(C)C1CCC(N(C)Cc2nc(NCCCN(C)C)c3ccccc3n2)CC1` (stereo not shown) [38-81], the remaining activity at 2 µg/mL lay within 0 to 20%.

Turning to `CC(=O)N1CCC(N(C)Cc2nc(NCCCN(C)C)c3ccccc3n2)CC1` [38-82], the remaining activity at 2 µg/mL was in the range of 40 to 80%.

In the case of `CN(C)CCCNc1nc(CN(C)C2CCC3CCCCC3C2)nc2ccccc12` (stereo not shown) [38-83], the remaining activity at 2 µg/mL lay within 20 to 40%.

Consider `CN(C)CCCNc1nc(CN(C)C2CCC(C(C)(C)C)CC2)nc2ccccc12` (stereo not shown) [38-84], for which the remaining activity at 2 µg/mL was 0 to 20%.

As to `CN(C)CCCNc1nc(CN(C)C2CCC3(CC2)OCCO3)nc2ccccc12` [38-85], the remaining activity at 2 µg/mL is 20 to 40%.

For the compound `CN(C)CCCNc1nc(CN(C)C2CCCC(C(F)(F)F)C2)nc2ccccc12` (stereo not shown) [38-86], the remaining activity at 2 µg/mL is 40 to 80%.

As to `CN(C)CCCNc1nc(CN(C)C2CCC(C(F)(F)F)CC2)nc2ccccc12` (stereo not shown) [38-87], the remaining activity at 2 µg/mL was in the range of 40 to 80%.

`CCC(C)(C)C1CCC(N(C)Cc2nc(NCCCN(C)C)c3ccccc3n2)CC1` (stereo not shown) [38-88]: the remaining activity at 2 µg/mL lay within 0 to 20%.

Consider `CN(C)CCCNc1nc(CN(C)C2CCC(c3ccccc3)CC2)nc2ccccc12` (stereo not shown) [38-89], for which the remaining activity at 2 µg/mL is 20 to 40%.

Staying with this test, now noted: 1 h, 2 ug/mL of drug; residual total binding of 3H STANDARD COMPOUND; lower is better; read-out: SPA ASSAY % Residual T @ 2 ug/mL of drug (Average of).
In the case of `COC(=O)[C@@H](Nc1nc(CNC(=O)Nc2ccccc2C(F)(F)F)nc2ccccc12)C(C)C` [34-36], the remaining activity at 2 µg/mL lay in the range of 40 to 80%.

With `COC(=O)[C@@H](Nc1nc(CNC(=O)Nc2ccc(Cl)c(Cl)c2)nc2ccccc12)C(C)C` [34-39], the remaining activity at 2 µg/mL fell in the range of 40 to 80%.

Turning to `COC(=O)[C@@H](Nc1nc(CNC(=O)Nc2cc(Cl)cc(Cl)c2)nc2ccccc12)C(C)C` [34-40], the remaining activity at 2 µg/mL fell in the range of 40 to 80%.

As for `COC(=O)[C@@H](Nc1nc(CNC(=O)Nc2ccccc2-c2ccccc2)nc2ccccc12)C(C)C` [34-41], the remaining activity at 2 µg/mL fell in the range of 40 to 80%.

Take `COC(=O)[C@@H](Nc1nc(CNC(=O)Nc2cccc(Br)c2)nc2ccccc12)C(C)C` [34-42]: the remaining activity at 2 µg/mL fell in the range of 40 to 80%.

Values taken from US20070015774A1, “Quinazoline derivatives useful in cancer treatment” (Schering Corporation, priority 2005, published 2007).
